# Publication PMC8318231, “Rate-of-Kill (RoK) assays to triage large compound sets for Chagas disease drug discovery: Application to GSK Chagas Box” (PLoS Neglected Tropical Diseases, 2021)
# Assays:
# [1] = tested on: TcCYP51; settings: formerly reported; cited from earlier work
# [2] = tested on: T. cruzi Tulahuen trypomastigotes; assay: T. cruzi trypomastigote assay (Cell Titer-Glo viability, ATP luminescence); assay type: cell-based, Trypanosoma cruzi; settings: for Trypomastigotes pIC50 48 hours: 48 hours incubation; for Trypomastigotes pIC50 48 hours / Trypomastigotes pIC50 72 hours: pIC50 = -log10 IC50 in molar units; for Trypomastigotes pIC50 72 hours: 72 hours incubation; for 48 pIC50 / 72 pIC50: trypomastigote assay; for 48 pIC50: 48 h; for 72 pIC50: 72 h
# Description: T. cruzi Tulahuen trypomastigotes obtained from the supernatants of LLC-MK2 infected cultures in a 225 cm^2 T-Flasks harvested between days 5 and 8 of infection. Trypomastigotes (5 × 10^4 per well) in 50 μl of DMEM/ 2% FBS were dispensed into white 384 plates (Greiner) pre-stamped with 250 nl compound a single-shot final concentration of 5 μM, or in dose response. […] Cell Titer-Glo cell viability solution (Promega) was added to each well (50 μL) incubated at room temperature for 10 min and luminescence read by Envision plate reader (Perkin Elmer). This assay quantifies the amount of ATP present which is directly proportional to the number of metabolically active cells. All data were normalised (100% effect control for no cells and 0% effect control for DMSO). This assay was adapted from MacLean et al., 2018 [22].
smiles,measurement,setting,value
O=c1[nH]c(C=Cc2cccc(OCCOc3ccccc3)c2)nc(O)c1[N+](=O)[O-] [TCMDC-143209],CYP51 pIC50,[1],< 4
same,Trypomastigotes pIC50 48 hours,[2],< 4.3
same,Trypomastigotes pIC50 72 hours,[2],< 4.3
same,48 pIC50,[2]; figure 1A,< 4.3
same,72 pIC50,[2]; figure 1A,< 4.3
same,72 pIC50,[2]; figure 1B,< 4.3
CN(Cc1cc2ccccc2s1)c1ncc2c(N)nc(N)nc2n1 [TCMDC-143232],CYP51 pIC50,[1],< 4
same,Trypomastigotes pIC50 48 hours,[2],5.3
same,Trypomastigotes pIC50 72 hours,[2],5.5
Clc1ccc(OCCN2CCCCC2c2cccnc2)c(Cl)c1 (centres unmarked) [TCMDC-143235],CYP51 pIC50,[1],7.2
same,Trypomastigotes pIC50 48 hours,[2],4.4
same,Trypomastigotes pIC50 72 hours,[2],4.4
same,48 pIC50,[2]; figure 1A,4.4
same,72 pIC50,[2]; figure 1A,4.4
same,72 pIC50,[2]; figure 1B,4.4
O=C(NCCNc1noc(-c2ccc([N+](=O)[O-])cc2)n1)c1ccc(Cl)cc1 [TCMDC-143241],CYP51 pIC50,[1],< 4
same,Trypomastigotes pIC50 48 hours,[2],5.4
same,Trypomastigotes pIC50 72 hours,[2],5.5
CN(Cc1cccnc1)Cc1ccc(N2CCN(C(=O)C3(c4ccc(Cl)cc4)CC3)CC2)nc1 [TCMDC-143247],CYP51 pIC50,[1],6.8
same,Trypomastigotes pIC50 48 hours,[2],5.1
same,Trypomastigotes pIC50 72 hours,[2],4.4
Cc1nn(C2CCS(=O)(=O)C2)c(C)c1CN(C)C(=O)C=Cc1sc2ccccc2c1Cl (centres unmarked) [TCMDC-143258],CYP51 pIC50,[1],7.5
same,Trypomastigotes pIC50 48 hours,[2],4.4
same,Trypomastigotes pIC50 72 hours,[2],4.7
Cc1cc(C)nc(N2CCC(N(Cc3cccnc3)C(=O)c3cccc(C#N)c3)CC2)n1 [TCMDC-143272],CYP51 pIC50,[1],6.9
same,Trypomastigotes pIC50 48 hours,[2],< 4.3
same,Trypomastigotes pIC50 72 hours,[2],< 4.3
same,48 pIC50,[2]; figure 1A,< 4.3
same,72 pIC50,[2]; figure 1A,< 4.3
same,72 pIC50,[2]; figure 1B,< 4.3
Cn1c(CN2CCN(c3ncc(C(F)(F)F)cc3Cl)CC2)nc2ccncc21 [TCMDC-143276],CYP51 pIC50,[1],7.1
same,Trypomastigotes pIC50 48 hours,[2],< 4.3
same,Trypomastigotes pIC50 72 hours,[2],< 4.3
same,48 pIC50,[2]; figure 1A,< 4.3
same,72 pIC50,[2]; figure 1A,< 4.3
same,72 pIC50,[2]; figure 1B,< 4.3
O=C(Nc1nc(-c2ccc(S(=O)(=O)N3CCOCC3)cc2)cs1)c1ccc([N+](=O)[O-])cc1 [TCMDC-143282],CYP51 pIC50,[1],< 4
same,Trypomastigotes pIC50 48 hours,[2],5.8
same,Trypomastigotes pIC50 72 hours,[2],5.8
same,48 pIC50,[2]; figure 1A,5.8
same,72 pIC50,[2]; figure 1A,5.8
same,72 pIC50,[2]; figure 1B,5.8
Cc1ccc2sc(NC(=O)Cn3cnc([N+](=O)[O-])n3)nc2c1 [TCMDC-143284],CYP51 pIC50,[1],< 4
same,Trypomastigotes pIC50 48 hours,[2],5.6
same,Trypomastigotes pIC50 72 hours,[2],5.3
CCN(CC)S(=O)(=O)c1ccc(Cn2nc(C(=O)Nc3ccncn3)c3ccccc32)cc1 [TCMDC-143288],CYP51 pIC50,[1],6.8
same,Trypomastigotes pIC50 48 hours,[2],< 4.3
same,Trypomastigotes pIC50 72 hours,[2],< 4.3
same,48 pIC50,[2]; figure 1A,< 4.3
same,72 pIC50,[2]; figure 1A,< 4.3
same,72 pIC50,[2]; figure 1B,< 4.3
CC(C(=O)Nc1ccccc1F)N(C)CC(=O)Nc1cccc2ccccc12 (centres unmarked) [TCMDC-143293],CYP51 pIC50,[1],4.8
same,Trypomastigotes pIC50 72 hours,[2],< 4.3
Cc1ccc2ccc(C(Nc3ccccn3)c3cccnc3)c(O)c2n1 (centres unmarked) [TCMDC-143308],CYP51 pIC50,[1],7.3
same,Trypomastigotes pIC50 48 hours,[2],5.7
same,Trypomastigotes pIC50 72 hours,[2],5.4
COc1ccccc1C=CCN1C[C@H]2CCC[C@@H](C1)C2(O)c1cccnc1 (some centres unmarked) [TCMDC-143309],CYP51 pIC50,[1],6.9
same,Trypomastigotes pIC50 48 hours,[2],< 4.3
same,Trypomastigotes pIC50 72 hours,[2],4.5
O=C(NCC(c1cccnc1)N1CCc2ccccc2C1)C(=O)Nc1cccc(Cl)c1 (centres unmarked) [TCMDC-143329],CYP51 pIC50,[1],7.2
same,Trypomastigotes pIC50 48 hours,[2],4.8
same,Trypomastigotes pIC50 72 hours,[2],4.8
same,48 pIC50,[2]; figure 1A,4.8
same,72 pIC50,[2]; figure 1A,4.8
same,72 pIC50,[2]; figure 1B,4.8
CCC1Oc2cc(S(=O)(=O)N(C)CC(=O)N3CCc4ccccc4C3)c(C)cc2NC1=O (centres unmarked) [TCMDC-143332],CYP51 pIC50,[1],6.1
same,Trypomastigotes pIC50 48 hours,[2],< 4.3
same,Trypomastigotes pIC50 72 hours,[2],< 4.3
same,48 pIC50,[2]; figure 1A,< 4.3
same,72 pIC50,[2]; figure 1A,< 4.3
same,72 pIC50,[2]; figure 1B,< 4.3
Cc1nc(N2CCC(C(=O)N3CCC(O)(c4cccnc4)CC3)CC2)nc2ccc(C(C)C)cc12 [TCMDC-143333],CYP51 pIC50,[1],6.9
same,Trypomastigotes pIC50 48 hours,[2],4.5
same,Trypomastigotes pIC50 72 hours,[2],4.4
CN(Cc1ccc(F)cc1)c1ccc(OCC(=O)N2CCCCC2c2cccnc2)nn1 (centres unmarked) [TCMDC-143334],CYP51 pIC50,[1],7.3
same,Trypomastigotes pIC50 48 hours,[2],< 4.3
same,Trypomastigotes pIC50 72 hours,[2],< 4.3
same,48 pIC50,[2]; figure 1A,< 4.3
same,72 pIC50,[2]; figure 1A,< 4.3
same,72 pIC50,[2]; figure 1B,< 4.3
Cc1ccc(NC(=O)C(C)n2nc([N+](=O)[O-])c(Br)c2C)cc1Cl (centres unmarked) [TCMDC-143338],CYP51 pIC50,[1],< 4
same,Trypomastigotes pIC50 48 hours,[2],5.5
same,Trypomastigotes pIC50 72 hours,[2],5.3
CN(Cc1nc2ccccc2s1)C(=O)C=Cc1cc2ccccc2o1 [TCMDC-143354],CYP51 pIC50,[1],6.8
same,Trypomastigotes pIC50 48 hours,[2],4.4
same,Trypomastigotes pIC50 72 hours,[2],< 4.3
Cc1cccc(NS(=O)(=O)c2cnc3sc(C)cn3c2=O)c1 [TCMDC-143372],CYP51 pIC50,[1],< 4
same,Trypomastigotes pIC50 48 hours,[2],< 4.3
same,Trypomastigotes pIC50 72 hours,[2],< 4.3
same,48 pIC50,[2]; figure 1A,< 4.3
same,72 pIC50,[2]; figure 1A,< 4.3
same,72 pIC50,[2]; figure 1B,< 4.3
Cc1ccc(CNC2CCN(C[C@@H]3Cn4c(=O)ccc5ccc(=O)n3c54)CC2)cc1F [TCMDC-143403],CYP51 pIC50,[1],< 4
same,Trypomastigotes pIC50 48 hours,[2],< 4.3
same,Trypomastigotes pIC50 72 hours,[2],< 4.3
same,48 pIC50,[2]; figure 1A,< 4.3
same,72 pIC50,[2]; figure 1A,< 4.3
same,72 pIC50,[2]; figure 1B,< 4.3
CN(C)c1ccc(-c2cc3nccnc3c(OC[C@H]3CCCNC3)n2)cn1.Cl [TCMDC-143408],CYP51 pIC50,[1],< 4
same,Trypomastigotes pIC50 48 hours,[2],4.5
same,Trypomastigotes pIC50 72 hours,[2],5.2
COc1ccc(-c2ccc3nnc(-c4ccc(O)c(OC)c4)n3c2)cn1 [TCMDC-143413],CYP51 pIC50,[1],< 4
same,Trypomastigotes pIC50 48 hours,[2],< 4.3
same,Trypomastigotes pIC50 72 hours,[2],< 4.3
same,48 pIC50,[2]; figure 1A,< 4.3
same,72 pIC50,[2]; figure 1A,< 4.3
same,72 pIC50,[2]; figure 1B,< 4.3
CN(C)c1ncc(-c2cncn2CCOc2ccc(Cl)cc2)cn1 [TCMDC-143415],CYP51 pIC50,[1],7.3
same,Trypomastigotes pIC50 48 hours,[2],4.5
same,Trypomastigotes pIC50 72 hours,[2],4.5
same,48 pIC50,[2]; figure 1A,4.5
same,72 pIC50,[2]; figure 1A,4.5
same,72 pIC50,[2]; figure 1B,4.5
CCC(c1ccc(F)cc1)n1cncc1-c1cnn(C)c1 (centres unmarked) [TCMDC-143416],CYP51 pIC50,[1],7.1
same,Trypomastigotes pIC50 48 hours,[2],< 4.3
same,Trypomastigotes pIC50 72 hours,[2],< 4.3
same,48 pIC50,[2]; figure 1A,< 4.3
same,72 pIC50,[2]; figure 1A,< 4.3
same,72 pIC50,[2]; figure 1B,< 4.3
O=C(Nc1ncc([N+](=O)[O-])s1)C1CC1 [TCMDC-143417],CYP51 pIC50,[1],< 4
same,Trypomastigotes pIC50 48 hours,[2],6.1
same,Trypomastigotes pIC50 72 hours,[2],6
Fc1ccccc1N1C[C@H]2CCN(c3cccnc3)C[C@H]2C1.O=C(O)C(F)(F)F [TCMDC-143422],CYP51 pIC50,[1],7.2
same,Trypomastigotes pIC50 48 hours,[2],4.6
same,Trypomastigotes pIC50 72 hours,[2],< 4.3
CC(Cn1ccnc1)NC(=O)C=Cc1ccc(Cl)cc1 (centres unmarked) [TCMDC-143423],CYP51 pIC50,[1],6.8
same,Trypomastigotes pIC50 48 hours,[2],< 4.3
same,Trypomastigotes pIC50 72 hours,[2],< 4.3
same,48 pIC50,[2]; figure 1A,< 4.3
same,72 pIC50,[2]; figure 1A,< 4.3
same,72 pIC50,[2]; figure 1B,< 4.3
CN1CCN(c2nc(-c3ccc(Cl)cc3)c3c(N)n(C)nc3n2)CC1 [TCMDC-143426],CYP51 pIC50,[1],< 4
same,Trypomastigotes pIC50 48 hours,[2],< 4.3
same,Trypomastigotes pIC50 72 hours,[2],< 4.3
same,48 pIC50,[2]; figure 1A,< 4.3
same,72 pIC50,[2]; figure 1A,< 4.3
same,72 pIC50,[2]; figure 1B,< 4.3
